Reference: patent EP0968649A1, “Adjuvants for novel dry herbicide formulations” (E.I. DU PONT DE NEMOURS AND COMPANY, priority 1998, dated 2000)

What was measured:
Type in all cases: in vivo
Viola arvensis (VIOAR) = test: Example 5: weed control, SCS5045 surfactant mixed with tribenuron methyl, visual percent growth reduction; details: where named, 0.1%, 300 L/ha, 70 days after treatment
Excerpt: (§1) Evaluation of SCS5045 surfactant was made by mixing the surfactant with tribenuron methyl herbicide and spraying the resulting solution at a rate of 5.625 to 45 g/ha tribenuron methyl in a spray volume of 300 L/ha on Viola arvensis (VIOAR) and Veronica agrestis (VERAG). Surfactants were applied at a concentration of 0.1% by weight (if the surfactant is dry) or by volume (if the surfactant is a liquid) of surfactant per volume of spray solution. Three replications were made of each treatment. Weed control was visually assessed 70 days after treatment by evaluating the percent growth reduction, using a 0 to 100% scale where 0% equals no control, and 100% equals death of the weed.

[1] = test system: Veronica agrestis (VERAG); test: as above; details: where named, 0.1%, 300 L/ha, 70 days after treatment
Excerpt: as §1

[2] = test system: Alopecurus myosuroides (ALOMY); test: Example 8: field weed control, adjuvants mixed with flupyrsulfuron methyl, visual percent growth reduction and head count; details: surfactant, where named, 0.1%; for % control ALOMY: 300 L/ha, 60 days after treatment; for Heads/m^2 ALOMY: at 85 days, untreated 784
Excerpt: (§2) Evaluation of the adjuvants was made, in the field by mixing the adjuvant with flupyrsulfuron methyl herbicide and spraying the resulting solution at a rate of 2.5 to 20 g/ha flupyrsulfuron methyl in a spray volume of 300 L/ha on Alopecurus myosuroides (ALOMY). Surfactants were applied at a concentration of 0.1 % by weight of SC5045 or 0.1 % by volume of Trend® 90 per volume of spray solution. Three replications were made of each treatment. Weed control was visually assessed 60 days after treatment by evaluating the percent growth reduction, using a 0 to 100% scale where 0% equals no control, and 100% equals death of the weed and by counting the number of ALOMY heads per m^2, at 85 days.

[3] = test system: velvetleaf (Abutilon theophrastic); test: Example 23: adjuvants tank mixed with chlorimuron ethyl, percent control from green fresh weights; details: herbicide alone, no adjuvant; chlorimuron ethyl 1.5 g/ha; 187 L/ha; after two weeks
Experimental: (§3) The effect of adjuvants on the activity of chlorimuron ethyl was investigated by tank mixing the adjuvants with the herbicide. Evaluation of the adjuvants was made by mixing the adjuvant with an herbicide solution and spraying the resulting solution at a rate of 1.5 g/ha chlorimuron ethyl in a spray volume of 187 L/ha on velvetleaf (Abutilon theophrastic). Four replications were made of each treatment. Plants were evaluated after two weeks by measuring their green fresh weights and convening these weight by comparison to an untreated control treatment into percent control values.

[4] = test system: Veronica hederifolia (VERHE); test: Example 7: field weed control, SCS5045 surfactant mixed with metsulfuron methyl, visual percent growth reduction; details: where named, 0.1%, 300 L/ha, 50 days after treatment
Excerpt: as §1, with “was made, in the field” for “was made”, “with metsulfuron” for “with tribenuron”, “g/ha metsulfuron” for “g/ha tribenuron”, “on” for “on Viola arvensis (VIOAR) and”, “Veronica hederifolia (VERHE).” for “Veronica agrestis (VERAG).”, “assessed 50” for “assessed 70”

[5] = test system: giant foxtail (Setaria faberi); test: Example 21: adjuvants tank mixed with isopropylamine salt of glyphosate, percent control from green fresh weights; details: herbicide alone, no added adjuvant; 210 g/ha isopropylamine salt of glyphosate; 187 L/ha; after two weeks
Experimental: as §3, with “of the isopropylamine salt of glyphosate” for “of chlorimuron ethyl”, “of 210” for “of 1.5”, “g/ha isopropylamine salt of glyphosate” for “g/ha chlorimuron ethyl”, “on giant foxtail (Setaria faberi).” for “on velvetleaf (Abutilon theophrastic).”, “and converting” for “and convening”

[6] = test system: giant foxtail (Setaria faberi); test: Example 22: adjuvants tank mixed with quizalofop-ethyl, percent control from green fresh weights; details: herbicide alone, no adjuvant; quizalofop-ethyl 3.5 g/ha; 187 L/ha; after two weeks
Experimental: as §3, with “quizalofop-ethyl” for “chlorimuron ethyl”, “3.5” for “1.5”, “giant foxtail (Setaria faberi).” for “velvetleaf (Abutilon theophrastic).”, “treatment. The experiment was repeated two times.” for “treatment.”, “converting” for “convening”

[7] = test system: giant foxtail (Setaria faberi); test: Example 20: adjuvants tank mixed with nicosulfuron, percent control from green fresh weights; details: herbicide alone, no adjuvant; nicosulfuron 3.5 g/ha; 187 L/ha; after two weeks
Experimental: as §3, with “nicosulfuron” for “chlorimuron ethyl”, “a nicosulfuron” for “an herbicide”, “3.5” for “1.5”, “giant foxtail (Setaria faberi).” for “velvetleaf (Abutilon theophrastic).”, “treatment. The experiment was repeated three times.” for “treatment.”, “converting” for “convening”

[8] = test system: giant foxtail (Setaria faberi); test: Example 19: adjuvants tank mixed with nicosulfuron, percent control from green fresh weights; details: Adjuvant Conc. 0 % w/w (no adjuvant); nicosulfuron 3.5 g/ha; 187 L/ha; after two weeks
Experimental: The effect of adjuvants on the activity of nicosulfuron was investigated by tank mixing the adjuvants with the herbicide. Evaluation of the adjuvants was made by mixing the adjuvant with a nicosulfuron solution and spraying the resulting solution at a rate of 3.5 g/ha nicosulfuron in a spray volume of 187 L/ha on giant foxtail (Setaria faberi). Three replications were made of each treatment. Plants were evaluated after two weeks by measuring their green fresh weights and converting these weight by comparison to an untreated control treatment into percent control values.

[9] = test system: common lambsquarters (Chenopodium album L.); test: Example 24: adjuvants tank mixed with thifensulfuron methyl, percent control from green fresh weights; details: herbicide alone, no adjuvant; thifensulfuron methyl 2 g/ha; 187 L/ha; after two weeks
Experimental: as §3, with “thifensulfuron methyl” for “chlorimuron ethyl”, “2” for “1.5”, “common lambsquarters (Chenopodium album L.).” for “velvetleaf (Abutilon theophrastic).”, “converting” for “convening”

[10] = test system: Alopecurus myosuroides (ALOMY); test: Example 6: field weed control, SCS5045 surfactant mixed with sulfosulfuron, visual percent growth reduction and head count; details: where named, 0.1%; for % control ALOMY: 300 L/ha, 60 days after treatment; for Heads/m^2 ALOMY: counted 85 days after treatment, untreated 400
Excerpt: as §2, with “SCS5045 surfactant” for “the adjuvants”, “surfactant” for “adjuvant”, “sulfosulfuron” for “flupyrsulfuron methyl”, “11.25” for “2.5”, “45 g /ha sulfosulfuron” for “20 g/ha flupyrsulfuron methyl”, “weed.” for “weed and by counting the number of ALOMY heads per m^2, at 85 days.”
The number of ALOMY heads per m^2 was also counted 85 days after treatment.

[11] = tribenuron methyl 5.625 g ai/ha
[12] = tribenuron methyl 11.25 g ai/ha
[13] = flupyrsulfuron methyl 2.5 g herbicide /ha
[14] = flupyrsulfuron methyl 5 g herbicide /ha
[15] = flupyrsulfuron methyl 10 g herbicide /ha
[16] = flupyrsulfuron methyl 20 g herbicide /ha
[17] = sulfosulfuron 11.25 g herbicide /ha
[18] = sulfosulfuron 22.5 g herbicide /ha
[19] = sulfosulfuron 33.75 g herbicide /ha
[20] = sulfosulfuron 45 g herbicide /ha

For `COC(=O)c1ccccc1S(=O)(=O)NC(=O)N(C)c1nc(C)nc(OC)n1` [Tribenuron methyl, tribenuron methyl], the “% control VIOAR” value (Viola arvensis (VIOAR); [11]) was 27%, the “% control VIOAR” value (Viola arvensis (VIOAR); [12]) was 75% and the “% control VIOAR” value (Viola arvensis (VIOAR); tribenuron methyl 22.5 g ai/ha) was 80%. The “% control VIOAR” value (Viola arvensis (VIOAR); tribenuron methyl 45 g ai/ha) was 99%, the “% control VERAG” value [1, 11] was 47% and the “% control VERAG” value [1, 12] was 60%. The “% control VERAG” value ([1]; tribenuron methyl 22.5 g ai/ha) was 63% and the “% control VERAG” value ([1]; tribenuron methyl 45 g ai/ha) was 87%.
For `COC(=O)c1ccc(C(F)(F)F)nc1S(=O)(=O)NC(=O)Nc1nc(OC)cc(OC)n1` [KE459, flupyrsulfuron methyl], the “% control ALOMY” value [2, 13] was 63%, the “Heads/m^2 ALOMY” value [2, 13] was 224 Heads/m^2 and the “% control ALOMY” value [2, 14] was 73%. For the same compound, the “Heads/m^2 ALOMY” value [2, 14] was 164 Heads/m^2, the “% control ALOMY” value [2, 15] was 77% and the “Heads/m^2 ALOMY” value [2, 15] was 16 Heads/m^2. The “% control ALOMY” value [2, 16] was 88% and the “Heads/m^2 ALOMY” value [2, 16] was 8 Heads/m^2.
With `CCOC(=O)c1ccccc1S(=O)(=O)NC(=O)Nc1nc(Cl)cc(OC)n1` [Chlorimuron Alone, chlorimuron ethyl] the “% Velvetleaf Control” value [3] was 53%.
With `COC(=O)c1ccccc1S(=O)(=O)NC(=O)Nc1nc(C)nc(OC)n1` [T6376, metsulfuron methyl] the “VERHE (percent growth reduction)” value ([4]; metsulfuron methyl 5.625 g herbicide /ha) was 33%, the “VERHE (percent growth reduction)” value ([4]; metsulfuron methyl 11.25 g herbicide /ha) was 33% and the “VERHE (percent growth reduction)” value ([4]; metsulfuron methyl 22.5 g herbicide /ha) was 52%. For the same compound, the “VERHE (percent growth reduction)” value ([4]; metsulfuron methyl 45 g herbicide /ha) was 100%.
For `CC(C)N.O=C(O)CNCP(=O)(O)O` [Glyphosate IPA Alone, isopropylamine salt of glyphosate], the “% Control” value [5] was 85%.
With `CCOC(=O)C(C)Oc1ccc(Oc2cnc3cc(Cl)ccc3n2)cc1` (stereo not shown) [Quizalofop Ethyl Alone, quizalofop-ethyl] the “% Control” value [6] was 7%.
For `COc1cc(OC)nc(NC(=O)NS(=O)(=O)c2ncccc2C(=O)N(C)C)n1` [Nicosulfuron Alone, nicosulfuron], the “% Control” value [7] was 2% and the percent control [8] was 0%.
In the case of `COC(=O)c1sccc1S(=O)(=O)NC(=O)Nc1nc(C)nc(OC)n1` [Thifensulfuron Alone, thifensulfuron methyl], the “% Common Lambsquarters Control” value [9] is reported as 11%.
`CCS(=O)(=O)c1nc2ccccn2c1S(=O)(=O)NC(=O)Nc1nc(OC)cc(OC)n1` [Sulfosulfuron, sulfosulfuron] was tested, and the “% control ALOMY” value [10, 17] was 33%, the “Heads/m^2 ALOMY” value [10, 17] was 209 Heads/m^2 and the “% control ALOMY” value [10, 18] was 47%. The “Heads/m^2 ALOMY” value [10, 18] was 76 Heads/m^2, the “% control ALOMY” value [10, 19] was 60% and the “Heads/m^2 ALOMY” value [10, 19] was 25 Heads/m^2. The “% control ALOMY” value [10, 20] was 77% and the “Heads/m^2 ALOMY” value [10, 20] was 6 Heads/m^2.
